Data reported in patent US20230407243A1, “GENETIC PLATFORM TO INVESTIGATE THE FUNCTIONS OF BACTERIAL DRUG EFFLUX PUMPS” (priority 2022, published 2023).

Columns and labels:
Assay in all cases: MIC susceptibility profiling, efflux platform
Assay type in all cases: cell-based, Escherichia coli
[1] = tested on: EKO-35 araC::acrEF; settings: for Fold change of MICs: EKO-35 araC::acrEF compared to EKO-35; for Minimum Inhibitory Concentration, EKO-35 araC::acrEF / MIC: Table 13A, non-porinated, technical duplicate; for MIC: Escherichia coli, read-out: Minimum Inhibitory Concentration, EKO-35 araC::acrEF
In short: (§1)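 Steps: LB overnight culture at 37 °C; resuspension in PBS to OD600 ~1.0; 1/2000 dilution in MHB II; addition to 2-fold serial compound dilutions (duplicate); 18 h shaking incubation at 37 °C; OD600 read, with pre-read subtracted.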

[2] = tested on: EKO-35 araC::emrAB; settings: for Fold change of MICs: EKO-35 araC::emrAB compared to EKO-35; for Minimum Inhibitory Concentration, EKO-35 araC::emrAB / MIC: Table 13B, non-porinated, technical duplicate; for MIC: Escherichia coli, read-out: Minimum Inhibitory Concentration, EKO-35 araC::emrAB
In short: as §1

[3] = tested on: EKO-35 araC::acrB; settings: for Fold change of MICs: EKO-35 araC::acrB compared to EKO-35; for Minimum Inhibitory Concentration, EKO-35 araC::acrB / MIC: Table 13A, non-porinated, technical duplicate; for MIC: Escherichia coli, read-out: Minimum Inhibitory Concentration, EKO-35 araC::acrB
In short: as §1

[4] = tested on: EKO-35 araC::macAB; settings: for Fold change of MICs: EKO-35 araC::macAB compared to EKO-35; for Minimum Inhibitory Concentration, EKO-35 araC::macAB / MIC: Table 13B, non-porinated, technical duplicate; for MIC: Escherichia coli, read-out: Minimum Inhibitory Concentration, EKO-35 araC::macAB
In short: as §1

[5] = tested on: EKO-35 araC::mexCD (MexCD from P. aeruginosa); settings: for Fold change of MICs: EKO-35 araC::mexCD compared to EKO-35; for Minimum Inhibitory Concentration, EKO-35 araC::mexCD / MIC: Table 13B, non-porinated, technical duplicate; for MIC: read-out: Minimum Inhibitory Concentration, EKO-35 araC::mexCD
In short: as §1

[6] = tested on: EKO-35 araC::acrBD408A; settings: for Fold change of MICs: EKO-35 araC::acrBD408A compared to EKO-35; for Minimum Inhibitory Concentration, EKO-35 araC::acrBD408A / MIC: Table 13B, non-porinated, technical duplicate; for MIC: Escherichia coli, read-out: Minimum Inhibitory Concentration, EKO-35 araC::acrBD408A
In short: as §1

[7] = tested on: EKO-35 araC::emrKY; settings: for Fold change of MICs: EKO-35 araC::emrKY compared to EKO-35; for Minimum Inhibitory Concentration, EKO-35 araC::emrKY / MIC: Table 13B, non-porinated, technical duplicate; for MIC: Escherichia coli, read-out: Minimum Inhibitory Concentration, EKO-35 araC::emrKY
In short: as §1

[8] = tested on: EKO-35 araC::acrD; settings: for Fold change of MICs: EKO-35 araC::acrD compared to EKO-35; for Minimum Inhibitory Concentration, EKO-35 araC::acrD / MIC: Table 13A, non-porinated, technical duplicate; for MIC: Escherichia coli, read-out: Minimum Inhibitory Concentration, EKO-35 araC::acrD
In short: as §1

Compound | Fold change of MICs [1] | Minimum Inhibitory Concentration, EKO-35 araC::acrEF [1] | Fold change of MICs [2] | Minimum Inhibitory Concentration, EKO-35 araC::emrAB [2] | Fold change of MICs [3] | Minimum Inhibitory Concentration, EKO-35 araC::acrB [3] | Fold change of MICs [4] | Minimum Inhibitory Concentration, EKO-35 araC::macAB [4] | Fold change of MICs [5] | Minimum Inhibitory Concentration, EKO-35 araC::mexCD [5] | Fold change of MICs [6] | Minimum Inhibitory Concentration, EKO-35 araC::acrBD408A [6] | Fold change of MICs [7] | Minimum Inhibitory Concentration, EKO-35 araC::emrKY [7] | Fold change of MICs [8] | Minimum Inhibitory Concentration, EKO-35 araC::acrD [8] | MIC [1] | MIC [3] | MIC [5] | MIC [7] | also measured
CC(C)c1ccc(C=C(C#N)c2nc3ccccc3[nH]2)cc1 [compound 12] | 1 fold | 320 µg/mL | 1 fold | 320 µg/mL | 1 fold | 320 µg/mL | 1 fold | 320 µg/mL | 1 fold | 320 µg/mL | 1 fold | 320 µg/mL | 1 fold | 320 µg/mL | 1 fold | 320 µg/mL | – | – | – | – | –
O=C(NC(=O)N1CCc2c([nH]c3ccccc23)C1C(F)(F)F)c1ccccc1 (centres unmarked) [compound 13] | 8 fold | 320 µg/mL | 8 fold | 320 µg/mL | 8 fold | 320 µg/mL | 1 fold | 40 µg/mL | 8 fold | 320 µg/mL | 1 fold | 40 µg/mL | 1 fold | 40 µg/mL | 8 fold | 320 µg/mL | – | – | – | – | –
Cn1cc(Br)c(-c2cccc(NC(=O)Nc3ccc(OC(F)(F)F)cc3)c2)n1 [compound 14] | 1 fold | 320 µg/mL | 1 fold | 320 µg/mL | 1 fold | 320 µg/mL | 1 fold | 320 µg/mL | 1 fold | 320 µg/mL | 1 fold | 320 µg/mL | 1 fold | 320 µg/mL | 1 fold | 320 µg/mL | – | – | – | – | –
N#CC(=NNc1ccc(F)c(Cl)c1)C(=O)c1ccc(Cl)cc1 [compound 15] | 1 fold | 320 µg/mL | 1 fold | 320 µg/mL | 1 fold | 320 µg/mL | 1 fold | 320 µg/mL | 1 fold | 320 µg/mL | 1 fold | 320 µg/mL | 1 fold | 320 µg/mL | 1 fold | 320 µg/mL | – | – | – | – | –
Nc1ccccc1SCc1nc(-c2ccc(Cl)cc2)no1 [compound 16] | 32 fold | 320 µg/mL | 16 fold | 160 µg/mL | 32 fold | 320 µg/mL | 1 fold | 10 µg/mL | 16 fold | 160 µg/mL | 1 fold | 10 µg/mL | 1 fold | 5 µg/mL | 1 fold | 10 µg/mL | – | – | – | – | –
O=C(Nc1ccccc1C(=O)Nc1nnc(C(F)(F)F)s1)c1ccccc1Cl [compound 19] | 1 fold | 320 µg/mL | 1 fold | 320 µg/mL | 1 fold | 320 µg/mL | 1 fold | 320 µg/mL | 1 fold | 320 µg/mL | 1 fold | 320 µg/mL | 1 fold | 320 µg/mL | 1 fold | 320 µg/mL | – | – | – | – | –
COc1cccc2c1C(=O)c1c(O)c3c(c(O)c1C2=O)C[C@@](O)(C(C)=O)C[C@@H]3O[C@H]1C[C@H](N)[C@H](O)[C@H](C)O1 [daunorubicin] | 64 fold | – | 1 fold | – | 64 fold | – | 2 fold | – | 32 fold | – | 1 fold | – | 1 fold | – | 2 fold | – | 200 µg/mL | 200 µg/mL | 100 µg/mL | 3.12 µg/mL | MIC [2]: 3.12 µg/mL; MIC [4]: 6.25 µg/mL; MIC [6]: 3.12 µg/mL; MIC [8]: 6.25 µg/mL
COc1cccc2c1C(=O)c1c(O)c3c(c(O)c1C2=O)C[C@@](O)(C(=O)CO)C[C@@H]3O[C@H]1C[C@H](N)[C@H](O)[C@H](C)O1 [doxorubicin] | 64 fold | – | 1 fold | – | 128 fold | – | 1 fold | – | 16 fold | – | 1 fold | – | 1 fold | – | 2 fold | – | 100 µg/mL | 200 µg/mL | 25 µg/mL | 1.56 µg/mL | MIC [2]: 1.56 µg/mL; MIC [4]: 1.56 µg/mL; MIC [6]: 1.56 µg/mL; MIC [8]: 3.12 µg/mL
C[C@@H]1O[C@@H]1P(=O)(O)O [fosfomycin] | – | – | 1 fold | – | 1 fold | – | 1 fold | – | 1 fold | – | 1 fold | – | 1 fold | – | 1 fold | – | 1.56 µg/mL | 1.56 µg/mL | 1.56 µg/mL | 1.56 µg/mL | MIC [8]: 1.56 µg/mL
